# Where “and” joins values, the source holds several entries; their conditions need not be identical. Equal values may be shown once. Entries after “also recorded” stand apart in the source; their conditions may differ.
# Columns and labels:
# [1] = test system: RSV-GFP; experiment: RSV-GFP infection of HEp-2 cells, automated imaging, dose-response; assay type: cell-based, Respiratory syncytial virus; settings: for EC50: HEp-2, 2 h; for inhibition at 0.5 µM: read-out: RSV-GFP inhibition (%), log Conc (uM) -0.30103; for inhibition at 0.25 µM: read-out: RSV-GFP inhibition (%), log Conc (uM) -0.60206; for inhibition at 0.1 µM: read-out: RSV-GFP inhibition (%), log Conc (uM) -1; for inhibition at 0.05 µM: read-out: RSV-GFP inhibition (%), log Conc (uM) -1.30103; for inhibition at 0.01 µM: read-out: RSV-GFP inhibition (%), log Conc (uM) -2; for inhibition at 0.75 µM: read-out: RSV-GFP inhibition (%), log Conc (uM) -0.12494; for RSV-GFP inhibition (%): 48 h p.i.
# Procedure: HEp-2 cells were seeded to black, flat, microclear-bottom 96-well plates (655096, Greiner Bio-One) at a density of 5000 cells per well and incubated at 37 °C/5% CO2 overnight. The following morning, cells were washed twice with serum-free EMEM and treated with RSV-GFP (MOI 0.5) in a minimal volume of serum-free media for 90 min under frequent agitation. Unbound virus was then removed and replaced with fresh serum-containing EMEM. All drug additions were performed 2 h post-viral exposure, unless otherwise stated. Nuclei were stained with Hoechst 33342 (H3570, Thermo Fisher Scientific) (at a final concentration of 1 µg/mL) 48 h p.i. and imaging was performed using the Cellomics ArrayScan VTI HCS Reader at ×10 magnification (SPARC BioCentre, The Hospital for Sick Children, Toronto, ON).
# Automated quantification of infection rates from fluorescent images were performed in CellProfiler (v2.2.0)[86]. Major steps in the image analysis pipeline included: (1) background subtraction and smoothing, (2) segmentation of nuclei, (3) segmentation of GFP-fluorescent area, (4) object masking, and (5) measurement of nuclear number, size, and intensity. Infection rate was quantified from the ratio of nuclei within GFP-fluorescent area to the total number of nuclei (Fig. 1b). This method of analysis accounts for in vitro syncytium formation induced by RSV, whereby a single infected cell may arise from the fusion of multiple cells. Mean nuclear fluorescent intensity and size was quantified as a measure of cell viability. […]
# [2] = test system: RSV-GFP; experiment: microbe, parasite or virus in culture; assay type: cell-based, Respiratory syncytial virus; settings: for inhibition at 10 µM: human respiratory syncytial virus, HEp-2, read-out: RSV-GFP inhibition (%); for RSV inhibition in the screen: HEp-2, RSV-GFP
# Procedure: The following morning, cells were washed twice with serum-free EMEM and treated with RSV-GFP (MOI 0.5) in a minimal volume of serum-free media for 90 min under frequent agitation. Unbound virus was then removed and replaced with fresh serum-containing EMEM. All drug additions were performed 2 h post-viral exposure, unless otherwise stated.
# Automated quantification of infection rates from fluorescent images were performed in CellProfiler (v2.2.0)[86]. Major steps in the image analysis pipeline included: (1) background subtraction and smoothing, (2) segmentation of nuclei, (3) segmentation of GFP-fluorescent area, (4) object masking, and (5) measurement of nuclear number, size, and intensity. Infection rate was quantified from the ratio of nuclei within GFP-fluorescent area to the total number of nuclei (Fig. 1b). This method of analysis accounts for in vitro syncytium formation induced by RSV, whereby a single infected cell may arise from the fusion of multiple cells. Mean nuclear fluorescent intensity and size was quantified as a measure of cell viability.
# The MicroSource […] Collection (Discovery Systems Inc.) consisting of 2400 compounds was screened using the previously outlined RSV-GFP infection assay protocol. Robot-assisted addition of drugs was performed within 1 h of RSV-GFP infection and infection rates were assayed 48 h p.i. Drugs were provided as 10 mM stocks in DMSO and serial diluted to a final concentration of 10 µM, resulting in a final DMSO concentration of 0.1% v/v. […] Hits were selected based on the criteria that: (a) the tested drug caused a >50% reduction in infection rate and (b) was not overtly cytotoxic (<10% change in mean nuclear intensity relative to DMSO control). Z-factors were calculated on a per-plate basis to monitor assay quality.
# [3] = human respiratory syncytial virus, HEp-2, RSV-GFP MOI 0.5, treated 2 h post-viral exposure
# [4] = human respiratory syncytial virus, HEp-2, 48 h, replicate values
smiles,measurement,setting,value
C[C@H]1O[C@@H](O[C@H]2[C@@H](O)C[C@H](O[C@H]3[C@@H](O)C[C@H](O[C@H]4CC[C@@]5(C)[C@H](CC[C@@H]6[C@@H]5CC[C@]5(C)[C@@H](C7=CC(=O)OC7)CC[C@]65O)C4)O[C@@H]3C)O[C@@H]2C)C[C@H](O)[C@@H]1O [Digitoxin],EC50,[1]; [3],11 nM
same,inhibition at 0.5 µM,[1]; [4],99.9%
same,inhibition at 0.25 µM,[1]; [4],98.6%
same,inhibition at […],"[1]; human respiratory syncytial virus, HEp-2, 48 h, read-out: RSV-GFP inhibition (%), log Conc (uM) -0.75696, replicate values",99.8%
same,inhibition at 0.1 µM,[1]; [4],78.3%
same,inhibition at 0.05 µM,[1]; [4],73%
same,inhibition at 0.04 µM,"[1]; human respiratory syncytial virus, HEp-2, 48 h, read-out: RSV-GFP inhibition (%), log Conc (uM) -1.39794, replicate values",78.7%
same,inhibition at 0.03 µM,"[1]; human respiratory syncytial virus, HEp-2, 48 h, read-out: RSV-GFP inhibition (%), log Conc (uM) -1.52288, replicate values",82%
same,inhibition at 0.02 µM,"[1]; human respiratory syncytial virus, HEp-2, 48 h, read-out: RSV-GFP inhibition (%), log Conc (uM) -1.69897, replicate values",68.5%
same,inhibition at 0.01 µM,[1]; [4],55%
same,inhibition at 10 µM,[2],98.8%
"C#C[C@]1(O)CC[C@H]2[C@@H]3CCC4=CC(=O)CC[C@@H]4[C@H]3CC[C@@]21C [Norethindrone, 19-Norethindrone]",EC50,[1]; [3],705 nM
same,inhibition at 0.8 µM,"[1]; human respiratory syncytial virus, HEp-2, 48 h, read-out: RSV-GFP inhibition (%), log Conc (uM) -0.09691, replicate values",61.9%
same,inhibition at 0.6 µM,"[1]; human respiratory syncytial virus, HEp-2, 48 h, read-out: RSV-GFP inhibition (%), log Conc (uM) -0.22185, replicate values",41.8%
same,inhibition at 0.5 µM,[1]; [4],19.2%
same,inhibition at 10 µM,[2],75.2%
CC(C)[C@@H]1NC(=O)[C@H](C)OC(=O)[C@@H](C(C)C)NC(=O)[C@@H](C(C)C)OC(=O)[C@H](C(C)C)NC(=O)[C@H](C)OC(=O)[C@@H](C(C)C)NC(=O)[C@@H](C(C)C)OC(=O)[C@H](C(C)C)NC(=O)[C@H](C)OC(=O)[C@@H](C(C)C)NC(=O)[C@@H](C(C)C)OC1=O [Valinomycin],EC50,[1]; human respiratory syncytial virus,39 nM
same,inhibition at 0.75 µM,[1]; [4],74.6%
same,inhibition at 0.5 µM,[1]; [4],71.6%
same,inhibition at 0.25 µM,[1]; [4],78.6%
same,inhibition at 0.1 µM,[1]; [4],76.7%
same,inhibition at 0.09 µM,"[1]; human respiratory syncytial virus, HEp-2, 48 h, read-out: RSV-GFP inhibition (%), log Conc (uM) -1.04576, replicate values",77.4%
same,inhibition at 0.06 µM,"[1]; human respiratory syncytial virus, HEp-2, 48 h, read-out: RSV-GFP inhibition (%), log Conc (uM) -1.22185, replicate values",71.2%
same,inhibition at 0.05 µM,[1]; [4],77.4%
same,inhibition at 10 µM,[2],88%
O=c1cc(-c2ccccc2)oc2ccc(O)cc12 [6-Hydroxyflavone],EC50,[1]; [3],705 nM
same,inhibition at 0.75 µM,[1]; [4],56.1%
same,inhibition at 0.5 µM,[1]; [4],36.6%
same,inhibition at 0.05 µM,[1]; [4],11.4%
same,inhibition at 10 µM,[2],74.1%
CC[C@@]1([C@@H]2O[C@@H]([C@H]3O[C@@](O)(CO)[C@H](C)C[C@@H]3C)C[C@@H]2C)CC[C@H]([C@]2(C)CC[C@]3(C[C@H](O)[C@@H](C)[C@@H]([C@@H](C)[C@@H](OC)[C@H](C)C(=O)O)O3)O2)O1 [Monensin A],inhibition at 10 µM,[2],93.9%
C[C@]12CCC(=O)C=C1[C@@H]1C[C@@H]1[C@H]1[C@@H]3[C@@H]4C[C@@H]4[C@@]4(CCC(=O)O4)[C@@]3(C)CC[C@@H]12 [Drospirenone],inhibition at 10 µM,[2],68.3%
"CC1(C)C(=O)C=C[C@]2(C)[C@H]3CC[C@@]4(C)[C@H](c5ccoc5)OC(=O)[C@H]5O[C@]54[C@]3(C)C=C[C@@H]12 [7-Desacetoxy-6,7-dehydrogedunin]",RSV-GFP inhibition (%),"[2]; 10.0 µM, HEp-2, RSV-GFP MOI 0.5, single replicate",69.38%
CC(C)n1c(/C=C/C(O)CC(O)CC(=O)O)c(-c2ccc(F)cc2)c2ccccc21 (stereo not drawn) [Fluvastatin],RSV inhibition in the screen,[2],inhibit RSV at low micromolar concentrations
same,inhibition at 10 µM,[2],73.2%
O=C(O)C[C@H](O)C[C@H](O)/C=C/c1c(C2CC2)nc2ccccc2c1-c1ccc(F)cc1 [Pitavastatin calcium],RSV inhibition in the screen,[2],inhibit RSV at low micromolar concentrations
same,inhibition at 10 µM,[2],63.4%
COc1c(C)c2c(c(O)c1C/C=C(\C)CCC(=O)O)C(=O)OC2 [Mycophenolic acid],inhibition at 10 µM,[2],98.8%
C[C@H]1O[C@@H](O[C@H]2[C@@H](O)C[C@H](O[C@H]3[C@@H](O)C[C@H](O[C@H]4CC[C@@]5(C)[C@H](CC[C@@H]6[C@@H]5C[C@@H](O)[C@]5(C)[C@@H](C7=CC(=O)OC7)CC[C@]65O)C4)O[C@@H]3C)O[C@@H]2C)C[C@H](O)[C@@H]1O [Digoxin],EC50,[1]; [3],26 nM
same,inhibition at 0.75 µM,[1]; [4],99.9%
same,inhibition at 0.5 µM,[1]; [4],100%
same,inhibition at 0.25 µM,[1]; [4],86.5%
same,inhibition at 0.1 µM,[1]; [4],85.5%
same,inhibition at 0.05 µM,[1]; [4],68.3%
same,inhibition at 0.01 µM,[1]; [4],25.2%
same,inhibition at 0.0075 µM,"[1]; human respiratory syncytial virus, HEp-2, 48 h, read-out: RSV-GFP inhibition (%), log Conc (uM) -2.12494, replicate values",18%
same,inhibition at 0.001 µM,"[1]; human respiratory syncytial virus, HEp-2, 48 h, read-out: RSV-GFP inhibition (%), log Conc (uM) -3, replicate values",9.48%
same,inhibition at 10 µM,[2],99.1%
C[C@@H]1O[C@@H](O[C@H]2C[C@@H](O)[C@]3(CO)[C@H]4[C@H](O)C[C@]5(C)[C@@H](C6=CC(=O)OC6)CC[C@]5(O)[C@@H]4CC[C@]3(O)C2)[C@H](O)[C@H](O)[C@H]1O [Ouabain],inhibition at 10 µM,[2],100%
C[C@]12CC[C@H]3[C@@H](CC[C@]4(O)C[C@@H](O)CC[C@]34C=O)[C@@]1(O)CC[C@@H]2C1=CC(=O)OC1 [Strophanthidin],inhibition at 10 µM,[2],90.4%
O=C(Nc1ccc([N+](=O)[O-])cc1Cl)c1cc(Cl)ccc1O [Niclosamide],EC50,[1]; [3],443 nM
same,inhibition at 0.75 µM,[1]; [4],73.9%
same,inhibition at 0.55 µM,"[1]; human respiratory syncytial virus, HEp-2, 48 h, read-out: RSV-GFP inhibition (%), log Conc (uM) -0.25964, replicate values",59.2%
same,inhibition at 0.5 µM,[1]; [4],63.8%
same,inhibition at 0.45 µM,"[1]; human respiratory syncytial virus, HEp-2, 48 h, read-out: RSV-GFP inhibition (%), log Conc (uM) -0.34679, replicate values",30.5%
same,inhibition at 0.4 µM,"[1]; human respiratory syncytial virus, HEp-2, 48 h, read-out: RSV-GFP inhibition (%), log Conc (uM) -0.39794, replicate values",21.3%
same,inhibition at 0.35 µM,"[1]; human respiratory syncytial virus, HEp-2, 48 h, read-out: RSV-GFP inhibition (%), log Conc (uM) -0.45593, replicate values",18.9%
same,inhibition at 0.3 µM,"[1]; human respiratory syncytial virus, HEp-2, 48 h, read-out: RSV-GFP inhibition (%), log Conc (uM) -0.52288, replicate values",4.57%
same,inhibition at 0.2 µM,"[1]; human respiratory syncytial virus, HEp-2, 48 h, read-out: RSV-GFP inhibition (%), log Conc (uM) -0.69897, replicate values",1.85%
same,inhibition at 10 µM,[2],93.9%
CNc1nc(C)c(-c2nc(Nc3cccc(S(N)(=O)=O)c3)ncc2F)s1 [CDKI-73],effect on RSV-GFP infection rate,[1]; CDKI-73 0.5 µM or 1.0 µM,did not reduce infection rate; also recorded: did not reduce RSV-GFP infection rates
same,RSV-GFP inhibition (%),"[1]; CDKI-73 0.5 uM, replicate values",15.9529% and 3.2849% and 2.901% and 0.6729%
same,RSV-GFP inhibition (%),"[1]; CDKI-73 1 uM, replicate values",5.404% and 7.553% and -1.2228% and 1.11%
